Measurements published in patent publication US20180214506A1, “COMBINATION ADMINISTRATION OF GNRH ANTAGONISTS” (ANTEV LIMITED, priority 2017, published 2018).
Converted amounts (≈) assume the structure as drawn. Counter-ions that a name gives are not always drawn. Like-named read-outs stand apart in the source and are kept apart here. Non-standard residues stand in square brackets, D forms with d. Residues, ends and D or L forms follow the SMILES beside them. Phe(4-Cl) = N[C@@H](Cc1ccc(Cl)cc1)C(=O)O; dPhe(4-Cl) = N[C@H](Cc1ccc(Cl)cc1)C(=O)O; d2Nal = N[C@H](Cc1ccc2ccccc2c1)C(=O)O; d(hCit) = NC(=O)NCCCC[C@@H](N)C(=O)O; Lys(iPr) = CC(C)NCCCC[C@H](N)C(=O)O; d3Pal = N[C@H](Cc1cccnc1)C(=O)O

Columns and labels:
[1] = Phase I study D-84812-Z012, single s.c. injection: safety and tolerability; assay type: in vivo, human; conditions: doses up to 90 mg, 32 healthy male volunteers
[2] = Phase II study 2 x 90 mg i.m. (A014): tolerability; assay type: in vivo, human; conditions: A014: i.m. 90 mg day 1 and 8
Procedure: (§1) The primary objective was to assess the duration of action of an initial “loading” dose regimen of Teverelix TFA delivered IM in terms of suppression of testosterone to below castrate level (0.5 ng/mL [2 nmol/L]). The secondary objectives were to assess the pharmacodynamics of teverelix in terms of ability to suppress and to maintain plasma testosterone levels below castration level (<0.5 ng/mL [2 nmol/L]) for 3 weeks; to assess the effects on luteinising hormone (LH) and prostate specific antigen (PSA); and to assess the safety of Teverelix in terms of incidence of local and systemic tolerability (adverse events [AEs] and changes in laboratory parameters).
(§2) This was a multicenter, open-label, non-controlled study in 14 patients diagnosed with advanced prostate cancer. Patients were screened for inclusion in the study between 1 and 7 days before first administration. Each patient received 2 intramuscular (i.m.) injections of 90 mg Teverelix TFA, 7 days apart, on Study Days 1 and 8. […] Blood samples were taken for the evaluation of teverelix, testosterone and LH in plasma, and PSA levels. Safety and tolerability were assessed throughout the study by monitoring local and systemic tolerability (AEs, clinical laboratory tests, vital signs an electrocardiogram [ECG]).
(§3) Comparison of s.c. injection 90 mg days 1, 2 and 3 vs. IM injection day 1 and 8.

[3] = Phase I study D-84812-Z012, single s.c. injection: pharmacokinetics of teverelix; assay type: in vivo, human
[4] = Phase II study 2 x 90 mg i.m. Days 1 and 8 (A014): plasma PK of teverelix; assay type: in vivo; conditions: male, human, im; for AUC(0-t) / Cmax / Tmax / AUC(0-inf) / half-life: 90 mg; for AUC(0-t): N=14, read-out: AUC (0-t) Geometric mean; for Cmax: N=14, read-out: Cmax (obs) Geometric mean; for Tmax: N=14, read-out: Tmax (obs) Median
Procedure: In order to test the hypothesis that and IM injection of a GnRH antagonist could be useful as part of a prostate cancer regimen, a Phase II Multicenter, Open-label Study Investigating the Pharmacokinetics, Pharmacodynamics, Efficacy and Safety of a Teverelix 90 mg, TFA formulation was conducted.
as §1, §2
The geometric means for Cmax(obs), AUC(0-t), and AUC(0-∞) (along with respective coefficients of variations presented in parenthesis); Tmax median (along with the range of Tmax values presented in parenthesis); and arithmetic mean for T1/2,elim (along with standard deviation presented in parenthesis) are presented in Table 1 for each dose of teverelix IM.
The combined geometric means for AUC and AUC(∞) (along with respective coefficients of variations presented in parenthesis); and arithmetic mean for apparent clearance (CL/F) (along with standard deviation presented in parenthesis) for the two i.m. doses of teverelix are presented in Table 2.

[5] = Water solubility of teverelix; assay type: physicochemical
Procedure: In some instances, the GnRH antagonist can be teverelix ((Ac-D-NaID-pClPhe-D-Pal-Ser-Tyr-D-Hci-Leu-Lys(iPr)-Pro-D-Ala-NH2). Teverelix is a synthetic decapeptide with a water solubility of approximately 10 mg/mL.

[6] = compared with degarelix; cited from earlier work
[7] = Phase I study EP-24332T-A004, repeated s.c. injections: tolerability; assay type: in vivo, human; conditions: 2 doses of 60 mg or 90 mg s.c. at 24 h or 48 h interval
Procedure: In a second Phase I study (EP-24332T-A004), a second injection was administered 24 h or 48 h after the first in order to increase and prolong the initial peak, as well as increase the teverelix level and consequently the number of subjects castrated. As the previous Phase I study had shown 10 mg and 30 mg to be insufficient to provide a long-term suppression, 2 doses of 60 mg or 90 mg (6 subjects per group) or placebo (4 subjects) were administered at a 24 h interval and 2 doses of 90 mg at a 48 h interval. […] No critical safety findings were reported. […] The protocol of the study included 6 subjects who received 90 mg Teverelix TFA on D1; D2; D3.

[8] = Clinical study A013, s.c. injection 90 mg days 1, 2 and 3: tolerability; assay type: in vivo, human; conditions: A013: s.c. 90 mg days 1, 2 and 3
Procedure: as §3

Row | SMILES | tolerability [1] | tolerability [2] | dose proportionality ([3]; between the 60 mg and 90 mg doses, single s.c.) | half-life ([3]; human, plasma, sc, single s.c. injection, doses up to 90 mg, healthy male volunteers) [h] | AUC(0-t) ([4]; Day 1 (Dose 1): 1 x 90 mg i.m.) [ng·h/mL] | Cmax ([4]; Day 1 (Dose 1): 1 x 90 mg i.m.) [ng/mL] | Tmax ([4]; Day 1 (Dose 1): 1 x 90 mg i.m.) [h] | AUC(0-inf) ([4]; Day 1 (Dose 1): 1 x 90 mg i.m., n = 8, read-out: AUC (0-∞) Geometric mean) [ng·h/mL] | half-life ([4]; Day 1 (Dose 1): 1 x 90 mg i.m., n = 8, read-out: T1/2,elim Arithmetic mean (converted)) [h] | AUC(0-t) ([4]; Day 8 (Dose 2): 1 x 90 mg i.m.) [ng·h/mL] | AUC(0-inf) ([4]; Day 8 (Dose 2): 1 x 90 mg i.m., N=14, read-out: AUC (0-∞) Geometric mean) [ng·h/mL] | Cmax ([4]; Day 8 (Dose 2): 1 x 90 mg i.m.) [ng/mL] | half-life ([4]; Day 8 (Dose 2): 1 x 90 mg i.m., N=14, read-out: T1/2,elim Arithmetic mean (converted)) [h] | Tmax ([4]; Day 8 (Dose 2): 1 x 90 mg i.m.) [h] | CL/F ([4]; 2 x 90 mg i.m., N=14, read-out: CL/F Arithmetic mean (converted)) [mL/min] | solubility [5] [µg/mL] | local irritation at the administration site [6] | local reactions at the injection sites [7] | tolerability [7] | tolerability [8]
1 | CC(=O)N[C@H](Cc1ccc2ccccc2c1)C(=O)N[C@H](Cc1ccc(Cl)cc1)C(=O)N[C@H](Cc1cccnc1)C(=O)N[C@@H](CO)C(=O)N[C@@H](Cc1ccc(O)cc1)C(=O)N[C@H](CCCCNC(N)=O)C(=O)N[C@@H](CC(C)C)C(=O)N[C@@H](CCCCNC(C)C)C(=O)N1CCC[C@H]1C(=O)N[C@H](C)C(N)=O [Teverelix TFA, teverelix trifluoroacetate] (Ac-[d2Nal][dPhe(4-Cl)][d3Pal]SY[d(hCit)]L[Lys(iPr)]P[dA]-NH2) | tolerated well | Very good/good for all patients | Dose proportionality was demonstrated | 252 to 331 | 1730 | 21.5 | 2 | 4610 | 167 | 8360 | 9380 | 38 | 404 | 1 | 249 | – | – | – | – | –
2 | CC(=O)N[C@H](Cc1ccc2ccccc2c1)C(=O)N[C@@H](Cc1ccc(Cl)cc1)C(=O)N[C@H](Cc1cccnc1)C(=O)N[C@@H](CO)C(=O)N[C@H](Cc1ccc(O)cc1)C(=O)N[C@H](CCCCNC(N)=O)C(=O)N[C@@H](CC(C)C)C(=O)N[C@@H](CCCCNC(C)C)C(=O)N1CCC[C@H]1C(=O)N[C@H](C)C(N)=O [teverelix, Ac-D-NaID-pClPhe-D-Pal-Ser-Tyr-D-Hci-Leu-Lys(iPr)-Pro-D-Ala-NH2] (Ac-[d2Nal][Phe(4-Cl)][d3Pal]S[dY][d(hCit)]L[Lys(iPr)]P[dA]-NH2) | – | – | – | – | – | – | – | – | – | – | – | – | – | – | – | ~10000 (≈ 6.85 mM) | less local irritation at the administration site than degarelix | only mild local indurations at the injection sites | tolerated well | Very good/good for all patients
